Results: patent US20240270751A1, “Pyrazolopyridinone Compounds” (BeiGene Ltd., priority 2021, published 2024)

How the values were obtained:
DGKζ = DGKζ (Homo sapiens (Human), UniProt Q13574); assay: Biochemical DGK IC50 assay, DGKζ ADP-Glo assay; settings: 0.5 nM enzyme, 140 μM ATP, 80 μM DAG; read-out: DGKζ ADP-Glo assay IC50
In short: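 ADP formation measured by ADP-Glo luminescence, with test compounds at final 1.55–10000 nM or 23.3–150000 nM. Enzyme: purified full-length human DGKζ from Sf9 insect cells; substrate: DAG/PS micelles in 25 mM HEPES pH 7.0, 0.5 mM EDTA, octyl glucoside.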

DGKα = DGKα (Homo sapiens (Human), UniProt P23743); assay: Biochemical DGK IC50 assay, DGKα ADP-Glo assay; settings: 7.5 nM enzyme, 140 μM ATP, 80 μM DAG
In short: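 Compounds at final 1.55˜10000 nM or 23.3˜150000 nM were tested against full-length DGKα. Substrate was lipid micelles of DAG and PS resuspended in 25 mM HEPES pH 7.0 with 0.5 mM EDTA and 160 mM octyl β-D-glucopyranoside. ADP formed was detected by ADP-Glo.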

DGKα, sequence (P23743 whole entry): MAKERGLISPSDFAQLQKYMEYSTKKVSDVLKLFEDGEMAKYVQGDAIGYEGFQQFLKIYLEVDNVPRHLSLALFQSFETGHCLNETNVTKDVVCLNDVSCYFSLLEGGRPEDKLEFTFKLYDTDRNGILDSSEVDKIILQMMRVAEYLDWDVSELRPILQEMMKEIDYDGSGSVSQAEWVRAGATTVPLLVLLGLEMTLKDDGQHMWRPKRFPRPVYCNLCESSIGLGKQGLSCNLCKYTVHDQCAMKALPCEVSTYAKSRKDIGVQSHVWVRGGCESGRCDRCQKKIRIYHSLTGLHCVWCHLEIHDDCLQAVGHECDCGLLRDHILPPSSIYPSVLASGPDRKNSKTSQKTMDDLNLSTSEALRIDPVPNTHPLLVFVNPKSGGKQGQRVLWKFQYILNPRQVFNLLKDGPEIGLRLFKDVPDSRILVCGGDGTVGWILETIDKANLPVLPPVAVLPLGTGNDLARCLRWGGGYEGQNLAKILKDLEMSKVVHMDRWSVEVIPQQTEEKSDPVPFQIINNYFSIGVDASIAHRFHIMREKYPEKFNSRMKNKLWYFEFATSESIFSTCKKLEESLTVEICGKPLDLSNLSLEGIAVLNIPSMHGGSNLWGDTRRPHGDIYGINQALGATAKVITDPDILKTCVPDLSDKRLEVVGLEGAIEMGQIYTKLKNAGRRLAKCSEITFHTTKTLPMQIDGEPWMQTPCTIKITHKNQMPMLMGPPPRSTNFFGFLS
DGKζ, sequence (Q13574 other isoform, or with tags, fused parts or gaps): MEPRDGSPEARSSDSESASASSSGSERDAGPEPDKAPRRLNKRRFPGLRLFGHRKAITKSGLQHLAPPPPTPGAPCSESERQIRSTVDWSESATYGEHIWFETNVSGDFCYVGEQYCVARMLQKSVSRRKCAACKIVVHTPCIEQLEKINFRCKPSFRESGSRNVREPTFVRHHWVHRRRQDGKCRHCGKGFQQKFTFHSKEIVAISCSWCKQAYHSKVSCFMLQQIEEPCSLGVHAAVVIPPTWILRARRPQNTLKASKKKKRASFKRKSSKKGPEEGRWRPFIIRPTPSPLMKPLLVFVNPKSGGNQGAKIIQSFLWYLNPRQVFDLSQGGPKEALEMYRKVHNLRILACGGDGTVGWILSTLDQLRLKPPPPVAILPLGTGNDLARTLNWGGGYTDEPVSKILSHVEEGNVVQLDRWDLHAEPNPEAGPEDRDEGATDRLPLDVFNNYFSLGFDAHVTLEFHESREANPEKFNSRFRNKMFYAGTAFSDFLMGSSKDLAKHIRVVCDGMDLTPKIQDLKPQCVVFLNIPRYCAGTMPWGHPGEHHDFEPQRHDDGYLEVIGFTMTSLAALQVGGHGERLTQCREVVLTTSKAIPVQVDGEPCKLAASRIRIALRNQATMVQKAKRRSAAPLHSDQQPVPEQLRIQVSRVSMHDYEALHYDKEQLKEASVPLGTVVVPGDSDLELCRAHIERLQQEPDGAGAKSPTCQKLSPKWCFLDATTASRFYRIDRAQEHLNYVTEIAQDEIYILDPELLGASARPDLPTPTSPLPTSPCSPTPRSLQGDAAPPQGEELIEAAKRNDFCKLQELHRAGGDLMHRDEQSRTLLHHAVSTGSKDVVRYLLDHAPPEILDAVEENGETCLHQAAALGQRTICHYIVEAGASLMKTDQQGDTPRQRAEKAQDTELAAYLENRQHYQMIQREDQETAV

IC50 (DGKζ) [nM]	IC50 (DGKα) [µM]	SMILES
5450	0.187	CC[C@H]1CN(C(C)c2ccc(F)cn2)[C@H](CC)CN1c1cc(=O)n(C)c2cn(CC#N)nc12 (single isomer, unassigned) [Compound A74b]
675	0.246	CC[C@H]1CN(C(C)c2ccc(CN3C[C@@H](C)O[C@@H](C)C3)cc2)[C@H](CC)CN1c1cc(=O)n(C)c2cn(CC#N)nc12 (stereo partly drawn) [Compound A343, 2-(7-((2S,5R)-4-(1-(4-(((2S,6R)-2,6-dimethylmorpholino)methyl)phenyl)ethyl)-2,5-diethylpiperazin-1-yl)-4-methyl-5-oxo-4,5-dihydro-2H-pyrazolo[4,3-b]pyridin-2-yl)acetonitrile]
2370	> 10	CC[C@H]1CN(C(C)c2nn(CC)cc2C)[C@H](CC)CN1c1cc(=O)n(C)c2cn(CC#N)nc12 (stereo partly drawn) [Compound A216]
663	> 10	CC[C@H]1CN(C(C)c2ccccc2OC(F)(F)F)[C@H](CC)CN1c1cc(=O)n(C)c2cn(CC#N)nc12 (stereo partly drawn) [Compound A80]
9440	0.118	CC[C@H]1CN(C(C)c2cnccn2)[C@H](CC)CN1c1cc(=O)n(C)c2cn(CC#N)nc12 (stereo partly drawn) [Compound A88]
15	6.49	Cc1cnc2ccc([C@H](C)N3C[C@H](C)N(c4c(C#N)c(=O)n(C)c5cn(CC#N)nc45)C[C@H]3C)cc2n1 [Compound A318, 2-(cyanomethyl)-7-((2S,5R)-2,5-dimethyl-4-((S)-1-(3-methylquinoxalin-6-yl)ethyl)piperazin-1-yl)-4-methyl-5-oxo-4,5-dihydro-2H-pyrazolo[4,3-b]pyridine-6-carbonitrile]
150	> 10	C[C@@H]1CN(c2cc(=O)n(C)c3cn(CC#N)nc23)[C@@H](C)CN1C(c1ccc2nccnc2c1)C(F)F (stereo partly drawn) [Compound A262, 2-(7-((2S,5R)-4-(2,2-difluoro-1-(quinoxalin-6-yl)ethyl)-2,5-dimethylpiperazin-1-yl)-4-methyl-5-oxo-4,5-dihydro-2H-pyrazolo[4,3-b]pyridin-2-yl)acetonitrile]
803	> 10	CC[C@H]1CN(C(C)c2ccc(C3CC3)cc2OC)[C@H](CC)CN1c1cc(=O)n(C)c2cn(CC#N)nc12 (single isomer, unassigned) [Compound A199b]
5740	> 10	CC[C@H]1CN(C(C)c2ccc3nccnc3c2)[C@H](CC)CN1c1cc(=O)n(CC(F)F)c2cn(CC#N)nc12 (single isomer, unassigned) [Compound A139b]
696	6.63	CCOc1cc(F)ccc1C(C)N1C[C@H](CC)N(c2cc(=O)n(C)c3cn(CC#N)nc23)C[C@H]1CC (stereo partly drawn) [Compound A141]
170	0.081	CC[C@H]1CN(C(C)c2c(F)cccc2F)[C@H](CC)CN1c1cc(=O)n(C)c2cn(CC#N)nc12 (stereo partly drawn) [Compound A83]
2290	8.43	CC[C@H]1CN(C(C)c2cnc(Cl)cc2C(F)(F)F)[C@H](CC)CN1c1cc(=O)n(C)c2cn(CC#N)nc12 (stereo partly drawn) [Compound A226]
3220	21.8	CC[C@@H]1CN(c2cc(=O)n(C)c3cn(CC#N)nc23)[C@@H](CC)CN1C(=O)c1ccc2cccnc2c1 [Compound A373]

SMILES	IC50 (DGKζ) [nM]	IC50 (DGKα) [µM]
CC(c1ccc2nccnc2c1)N1C[C@H](C)N(c2cc(=O)n(C)c3cn(CC#N)nc23)C[C@H]1C (mixture of isomers) [Compound A2, 2-(7-((2S,5R)-2,5-dimethyl-4-(1-(quinoxalin-6-yl)ethyl)piperazin-1-yl)-4-methyl-5-oxo-4,5-dihydro-2H-pyrazolo[4,3-b]pyridin-2-yl)acetonitrile]	71	7.7
CC(c1ccc2nccnc2c1)N1C[C@H](C)N(c2nc(=O)n(C)c3cn(CC#N)nc23)C[C@H]1C (stereo partly drawn) [Compound A154, 2-(7-((2S,5R)-2,5-dimethyl-4-(1-(quinoxalin-6-yl)ethyl)piperazin-1-yl)-4-methyl-5-oxo-4,5-dihydro-2H-pyrazolo[4,3-d]pyrimidin-2-yl)acetonitrile]	104	9.21
